In patent USRE48461E1, “Modulation of androgen receptor expression” (Ionis Pharmaceuticals, Inc., priority 2012, dated 2021):

Key:
Format in all cases: cell-based, human
[1] = system: C4-2B cells; test: C4-2B cell proliferation, ASO in combination with MDV3100 (Example 21); details: for Proliferation (% untreated control) in C4-2B without MDV-3100: 5 days
Protocol: C4-2B cells were plated at 1,000 cells per well. […] ISIS 549148 was included as a negative control. […] After a treatment period of 5 days, the proliferative capacity of the cancer cells was measured with CellTiter 96® AQueous One Solution Cell Proliferation kit (Promega), following the manufacturer's instructions. […]

[2] = system: VCaP cells; test: VCaP cell proliferation; details: VCaP cells, 5 days
Protocol: (§1) After a treatment period of 5 days in complete medium or CSS+1 nM DHT medium, the proliferative capacity of the cancer cells was measured with using CellTiter 96® AQueous One or CellTiter-Glo® Solution Cell Proliferation kit (Promega), following the manufacturer's instructions. […] Treatment with ISIS oligonucleotides in CSS+DHT medium reduced the proliferative capacity to a greater extent than treatment with MVD-3100. The proliferative capacity of cells cultured in CSS medium without DHT is 12% of untreated control levels.

[3] = system: 22RV1 cells; test: 22RV1 apoptosis (Caspase-glo 3/7); details: 22RV1 cells, 72 hours
Protocol: After a treatment period of 72 hours in complete medium or CSS+DHT medium, apoptosis of the cancer cells was measured with Caspase-glo 3/7 assay kit (Promega). Results are presented in Tables 131 and 132 as percent apoptosis of the cells, relative to non-treated cells.

[4] = system: 22RV1 cells; test: 22RV1 cell proliferation (Example 32); details: 22RV1 cells, complete medium, 5 days
Protocol: as §1, with “complete” for “complete medium or CSS+1 nM DHT”

[5] = system: TMPRSS2 mRNA; test: Time-course TMPRSS2 expression in C4-2B cells
Protocol: C4-2B cells were plated at 1,000 cells per well in complete medium. […] ISIS 549148 was included as a negative control. […] After a treatment period of 8 hours, 24 hours, and 48 hours, AR expression was measured with primer probe set hAR-LTS00943. Results are presented in Tables 70-72 as percent expression of AR, relative to non-treated cells.
Expression analysis of prostate-specific antigen (PSA) and TMPRSS2 were also analyzed. Results are presented in Tables 73-75 as percent inhibition of PSA expression and Tables 76-78 as percent inhibition of TMPRSS2 expression, relative to non-treated cells.

[6] = system: PSA mRNA; test: PSA expression in C4-2 cells; details: 48 hrs; for Percent inhibition of PSA expression: C4-2 cells, CSS + DHT medium
Protocol: Cells were plated at 1,000 cells per well. […] After an incubation period of 48 hrs, RNA levels of AR, PSA and TMPRSS2 were measured.
Cells were plated at 2,000 cells per well and cultured in CSS media with 1 nM DHT. […] After an incubation period of 48 hrs, RNA levels of AR, PSA and TMPRSS2 were measured.

Sequence: GGCTACTACGCCGTCA (3-10-3 (S)-cEt gapmer, chemistry not fully specified) [ISIS 549148, reference compound]
- Proliferation (% untreated control) in C4-2B with 0.08 μM MDV-3100 ([1]; ASO dose 0.04 μM + 0.08 μM MDV-3100): 125 % untreated control
- Proliferation (% untreated control) in C4-2B with 0.4 μM MDV-3100 ([1]; ASO dose 0.04 μM + 0.4 μM MDV-3100): 110 % untreated control
- Proliferation (% untreated control) in C4-2B with 2.0 μM MDV-3100 ([1]; ASO dose 0.04 μM + 2.0 μM MDV-3100): 40 % untreated control
- Proliferation (% untreated control) in C4-2B with […] MDV-3100 ([1]; ASO dose 0.04 μM + […] MDV-3100): 107 % untreated control
- Proliferation (% untreated control) in C4-2B without MDV-3100 ([1]; ASO dose 0.04 μM): 117 % untreated control
- Proliferation (% untreated control) in C4-2B with 0.08 μM MDV-3100 ([1]; ASO dose 0.08 μM + 0.08 μM MDV-3100): 84 % untreated control
- Proliferation (% untreated control) in C4-2B with 0.4 μM MDV-3100 ([1]; ASO dose 0.08 μM + 0.4 μM MDV-3100): 89 % untreated control
- Proliferation (% untreated control) in C4-2B with 2.0 μM MDV-3100 ([1]; ASO dose 0.08 μM + 2.0 μM MDV-3100): 47 % untreated control
- Proliferation (% untreated control) in C4-2B with […] MDV-3100 ([1]; ASO dose 0.08 μM + […] MDV-3100): 110 % untreated control
- Proliferation (% untreated control) in C4-2B without MDV-3100 ([1]; ASO dose 0.08 μM): 111 % untreated control
- Proliferation (% untreated control) in C4-2B with 0.08 μM MDV-3100 ([1]; ASO dose 0.2 μM + 0.08 μM MDV-3100): 123 % untreated control
- Proliferation (% untreated control) in C4-2B with 0.4 μM MDV-3100 ([1]; ASO dose 0.2 μM + 0.4 μM MDV-3100): 88 % untreated control
- Proliferation (% untreated control) in C4-2B with 2.0 μM MDV-3100 ([1]; ASO dose 0.2 μM + 2.0 μM MDV-3100): 52 % untreated control
- Proliferation (% untreated control) in C4-2B with […] MDV-3100 ([1]; ASO dose 0.2 μM + […] MDV-3100): 124 % untreated control
- Proliferation (% untreated control) in C4-2B without MDV-3100 ([1]; ASO dose 0.2 μM): 118 % untreated control
- Proliferation (% untreated control) in C4-2B with 0.08 μM MDV-3100 ([1]; ASO dose 1.0 μM + 0.08 μM MDV-3100): 114 % untreated control
- Proliferation (% untreated control) in C4-2B with 0.4 μM MDV-3100 ([1]; ASO dose 1.0 μM + 0.4 μM MDV-3100): 88 % untreated control
- Proliferation (% untreated control) in C4-2B with 2.0 μM MDV-3100 ([1]; ASO dose 1.0 μM + 2.0 μM MDV-3100): 59 % untreated control
- Proliferation (% untreated control) in C4-2B with […] MDV-3100 ([1]; ASO dose 1.0 μM + […] MDV-3100): 103 % untreated control
- Proliferation (% untreated control) in C4-2B without MDV-3100 ([1]; ASO dose 1.0 μM): 126 % untreated control
- Proliferation (% untreated control) ([2]; CSS + DHT medium, 1.34 nM): 114 % untreated control
- Proliferation (% untreated control) ([2]; CSS + DHT medium, 4.0 nM): 123 % untreated control
- Proliferation (% untreated control) ([2]; CSS + DHT medium, 13.4 nM): 104 % untreated control
- Proliferation (% untreated control) ([2]; CSS + DHT medium, 40 nM): 92 % untreated control
- Proliferation (% untreated control) ([2]; complete medium, 1.34 nM): 98 % untreated control
- Proliferation (% untreated control) ([2]; complete medium, 4.0 nM): 98 % untreated control
- Proliferation (% untreated control) ([2]; complete medium, 13.4 nM): 113 % untreated control
- Proliferation (% untreated control) ([2]; complete medium, 40 nM): 106 % untreated control
- Apoptosis (% untreated control) ([3]; CSS + DHT medium, 1.34 nM): 113 % untreated control
- Apoptosis (% untreated control) ([3]; CSS + DHT medium, 4.0 nM): 94 % untreated control
- Apoptosis (% untreated control) ([3]; CSS + DHT medium, 13.4 nM): 102 % untreated control
- Apoptosis (% untreated control) ([3]; CSS + DHT medium, 40 nM): 108 % untreated control
- Apoptosis (% untreated control) ([3]; complete medium, 1.34 nM): 81 % untreated control
- Apoptosis (% untreated control) ([3]; complete medium, 4.0 nM): 76 % untreated control
- Apoptosis (% untreated control) ([3]; complete medium, 13.4 nM): 72 % untreated control
- Apoptosis (% untreated control) ([3]; complete medium, 40 nM): 123 % untreated control
- Proliferation (% untreated control) ([4]; 1.34 nM): 97 % untreated control
- Proliferation (% untreated control) ([4]; 4.0 nM): 97 % untreated control
- Proliferation (% untreated control) ([4]; 13.4 nM): 101 % untreated control
- Proliferation (% untreated control) ([4]; 40 nM): 83 % untreated control
- Percent inhibition of TMPRSS2 expression compared to the control group in 8 hours ([5]; 0.04 μM): 5%
- Percent inhibition of TMPRSS2 expression compared to the control group in 24 hours ([5]; 0.04 μM): 29%
- Percent inhibition of TMPRSS2 expression compared to the control group in 48 hours ([5]; 0.04 μM): 0%
- Percent inhibition of TMPRSS2 expression compared to the control group in 8 hours ([5]; 0.2 μM): 0%
- Percent inhibition of TMPRSS2 expression compared to the control group in 24 hours ([5]; 0.2 μM): 10%
- Percent inhibition of TMPRSS2 expression compared to the control group in 48 hours ([5]; 0.2 μM): 4%
- Percent inhibition of TMPRSS2 expression compared to the control group in 8 hours ([5]; 1 μM): 0%
- Percent inhibition of TMPRSS2 expression compared to the control group in 24 hours ([5]; 1 μM): 29%
- Percent inhibition of TMPRSS2 expression compared to the control group in 48 hours ([5]; 1 μM): 0%
- Percent inhibition of TMPRSS2 expression compared to the control group in 8 hours ([5]; 5.0 μM): 0%
- Percent inhibition of TMPRSS2 expression compared to the control group in 24 hours ([5]; 5.0 μM): 10%
- Percent inhibition of TMPRSS2 expression compared to the control group in 48 hours ([5]; 5.0 μM): 0%
- Percent inhibition of PSA expression ([6]; 0.04 μM): 0%
- Percent inhibition of PSA expression ([6]; 0.2 μM): 8%
- Percent inhibition of PSA expression ([6]; 1 μM): 21%
- Percent inhibition of PSA expression ([6]; 5.0 μM): 22%
- Percent inhibition of PSA expression in C4-2 cells cultured in complete medium ([6]; 0.04 μM): 15%
- Percent inhibition of PSA expression in C4-2 cells cultured in complete medium ([6]; 0.2 μM): 24%
- Percent inhibition of PSA expression in C4-2 cells cultured in complete medium ([6]; 1 μM): 24%
- Percent inhibition of PSA expression in C4-2 cells cultured in complete medium ([6]; 5.0 μM): 23%
